Source: patent US20160318866A1, “SUBSTITUTED BIPIPERIDINYL DERIVATIVES” (Bayer Pharma Aktiengesellschaft, priority 2013, published 2016)
Where a name gives a salt, the structure may show the parent alone.

biological target: T1, human α2C receptor (Homo sapiens, UniProt P18825); test: Antagonism against the adrenoreceptor α2C (luminescence, recombinant CHO cell line); type: cell-based; settings: antagonism against adrenoreceptor α2C; noradrenaline 20 nM; tested up to 10 μM; read-out: IC50
T1 construct: expressed in transfected cells; host or cells: CHO cells, also recombinantly expressing chimeric G protein Gαqi3 and mitochondrial obelin (mtOb)
T1 sequence (P18825 1-462): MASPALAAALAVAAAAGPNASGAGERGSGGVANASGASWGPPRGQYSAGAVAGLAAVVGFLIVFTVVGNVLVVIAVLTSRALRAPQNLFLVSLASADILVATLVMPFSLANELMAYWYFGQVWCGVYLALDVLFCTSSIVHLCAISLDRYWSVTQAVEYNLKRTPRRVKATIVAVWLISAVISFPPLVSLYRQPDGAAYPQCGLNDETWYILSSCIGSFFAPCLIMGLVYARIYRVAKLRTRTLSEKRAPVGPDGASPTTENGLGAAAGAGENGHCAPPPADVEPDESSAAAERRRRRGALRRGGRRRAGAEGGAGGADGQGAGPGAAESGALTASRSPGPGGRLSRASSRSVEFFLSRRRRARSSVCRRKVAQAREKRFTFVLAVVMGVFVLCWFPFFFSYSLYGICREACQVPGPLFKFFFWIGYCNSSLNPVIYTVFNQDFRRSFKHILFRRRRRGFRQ
Method: Antagonism against the adrenoreceptor α1A was tested using a recombinant human α1A receptor CHO cell line which additionally also recombinantly expresses mtAeq (mitochondrial aequorin). Antagonism against the adrenoreceptor α2A was tested using a recombinant human α2A-Gα16 receptor fusion protein CHO cell line (PerkinElmer Life Sciences) which additionally also recombinantly expresses mtAeq. Antagonism against the adrenoreceptor α2B was tested using a recombinant human α2B receptor CHO cell line (PerkinElmer Life Sciences) which additionally also recombinantly expresses mtAeq. Antagonism against the adrenoreceptor α2C was tested using a recombinant human α2C receptor CHO cell line which additionally also recombinantly expresses a chimaric G protein (Gαqi3) and mtOb (mitochondrial obelin).
The cells were cultivated at 37° C. and 5% CO2 in Dulbecco's modified Eagle's Medium/NUT mix F12 with L-glutamine which additionally contains 10% (v/v) inactivated foetal calf serum, 1 mM sodium pyruvate, 0.9 mM sodium bicarbonate, 50 U/ml penicillin, 50 μg/ml streptomycin, 2.5 μg/ml amphotericin B and 1 mg/ml Geneticin. The cells were passaged with enzyme-free Hank's-based cell dissociation buffer. All cell culture reagents used are from Invitrogen (Carlsbad, USA).
Luminescence measurements were carried out on white 384-well microtitre plates. 2000 cells/well were plated in a volume of 25 μl and cultivated for one day at 30° C. and 5% CO2 in cell culture medium with coelenterazine (α2A and α2B: 5 μg/ml; α1a/c and α2C: 2.5 μg/ml). Serial dilutions of the test substances (10 μl) were added to the cells. After 5 minutes, noradrenalinee was added to the cells (35 μl; final concentrations: 20 nM (α1a/c and α2C) or 200 nM (α2A and α2B)), and the emitted light was measured for 50 seconds using a CCD (charge-coupled device) camera (Hamamatsu Corporation, Shizuoka, Japan) in a light-tight box. The test substances were tested up to a maximum concentration of 10 μM. The IC50 values were calculated from the appropriate dose-response curves.

SMILES | IC50 [nM]
CC1CCCN(C2CCN(C(=O)c3ccc(C4(C)COC4)cc3)CC2)C1 (stereo not shown) [Example 25, (3-Methyl-1,4′-bipiperidin-1′-yl) [4-(3-methyloxetan-3-yl)phenyl]methanone] | 101
CCOC(=O)C1CCCN(C2CCN(C(=O)c3ccc(C4(C)COC4)cc3)CC2)C1 (stereo not shown) [Example 26, Ethyl 1′-[4-(3-methyloxetan-3-yl)benzoyl]-1,4′-bipiperidine-3-carboxylate] | 12
CCOC(=O)C(C)(C)c1ccc(C(=O)N2CCC(N3CCCC(C)C3)CC2)cc1 (stereo not shown) [Example 27, 1-{1-[4-(1-Ethoxy-2-methyl-1-oxopropan-2-yl)benzoyl]piperidin-4-yl}-3-methylpiperidine trifluoroacetic acid salt] | 162
CC1CCCN(C2CCN(C(=O)c3ccc(C(C)(C)CO)cc3)CC2)C1 (stereo not shown) [Example 28, 1-{1-[4-(1-Hydroxy-2-methylpropan-2-yl)benzoyl]piperidin-4-yl}-3-methylpiperidine trifluoroacetic acid salt] | 156
CCOC(=O)C1CCCN(C2CCN(C(=O)c3ccc(C(C)(C)C(=O)OCC)cc3)CC2)C1 (stereo not shown) [Example 29, 3-(Ethoxycarbonyl)-1-{1-[4-(1-ethoxy-2-methyl-1-oxopropan-2-yl)benzoyl]piperidin-4-yl}piperidine trifluoroacetic acid salt] | 29
CCOC(=O)C1(c2ccc(C(=O)N3CCC(N4CCCC(C)C4)CC3)cc2)CC1 (stereo not shown) [Example 30, 1-(1-{4-[1-(Ethoxycarbonyl)cyclopropyl]benzoyl}piperidin-4-yl)-3-methylpiperidine trifluoroacetic acid salt] | 166
CC1CCCN(C2CCN(C(=O)c3ccc(C4(CO)CC4)cc3)CC2)C1 (stereo not shown) [Example 31, 1-(1-{4-[1-(Hydroxymethyl)cyclopropyl]benzoyl}piperidin-4-yl)-3-methylpiperidine trifluoroacetic acid salt] | 403
CCOC(=O)c1ccc(C(=O)N2CCC(N3CCCC(C)C3)CC2)cc1 (stereo not shown) [Example 32, 1-{1-[4-(Ethoxycarbonyl)benzoyl]piperidin-4-yl}-3-methylpiperidine trifluoroacetic acid salt] | 222
CCOC(=O)Cc1ccc(C(=O)N2CCC(N3CCCC(C)C3)CC2)cc1 (stereo not shown) [Example 33, 1-{1-[4-(2-Ethoxy-2-oxoethyl)benzoyl]piperidin-4-yl}-3-methylpiperidine trifluoroacetic acid salt] | 497
CCOC(=O)Cc1ccc(C(=O)N2CCC(N3CCCC(C(=O)OCC)C3)CC2)cc1 (stereo not shown) [Example 34, 3-(Ethoxycarbonyl)-1-{1-[4-(2-ethoxy-2-oxoethyl)benzoyl]piperidin-4-yl}piperidine trifluoroacetic acid salt] | 86
CCCCN(C)C(=O)c1ccc(C(=O)N2CCC(N3CCCC(C)C3)CC2)cc1 (stereo not shown) [Example 35, N-Butyl-N-methyl-4-[(3-methyl-1,4′-bipiperidin-1′-yl)carbonyl]benzamide] | 124
COCCNC(=O)c1ccc(C(=O)N2CCC(N3CCCC(C)C3)CC2)cc1 (stereo not shown) [Example 36, N-(2-Methoxyethyl)-4-[(3-methyl-1,4′-bipiperidin-1′-yl)carbonyl]benzamide] | 479
CCN(CCOC)C(=O)c1ccc(C(=O)N2CCC(N3CCCC(C)C3)CC2)cc1 (stereo not shown) [Example 37, 1-(1-{4-[Ethyl-(2-methoxyethyl)carbamoyl]benzoyl}piperidin-4-yl)-3-methylpiperidine trifluoroacetic acid salt] | 406
CC1CCCN(C2CCN(C(=O)c3ccc(C(=O)NC(C)(C)C)cc3)CC2)C1 (stereo not shown) [Example 38, 1-{1-[4-(tert-Butylcarbamoyl)benzoyl]piperidin-4-yl}-3-methylpiperidine trifluoroacetic acid salt] | 139
CC1CCCN(C2CCN(C(=O)c3ccc(-c4cnco4)cc3)CC2)C1 (stereo not shown) [Example 39, (3-Methyl-1,4′-bipiperidin-1′-yl) [4-(1,3-oxazol-5-yl)phenyl]methanone] | 244
CC(C)(C)c1ccc(C(=O)N2CCC(N3CCCC(OC(=O)N4CCCC4)C3)CC2)cc1 (stereo not shown) [Example 40, 1′-(4-tert-Butylbenzoyl)-1,4′-bipiperidin-3-yl-pyrrolidin-1-carboxylate trifluoroacetic acid salt] | 127

SMILES | IC50 [nM]
COC(=O)C(C)(C)c1ccc(C(=O)N2CCC(N3CCCC(C)C3)CC2)c(F)c1 (stereo not shown) [Example 41, Methyl 2-{3-fluoro-4-[(3-methyl-1,4′-bipiperidin-1′-yl)carbonyl]phenyl}-2-methylpropanoate trifluoroacetic acid salt] | 199
CCOC(=O)C1CCCN(C2CCN(C(=O)c3ccc(C(C)(C)OC)cc3)CC2)C1 (stereo not shown) [Example 42, Ethyl 1′-[4-(2-methoxypropan-2-yl)benzoyl]-1,4′-bipiperidine-3-carboxylate] | 26
CC(c1ccccc1)N(C)C(=O)c1ccc(C(=O)N2CCC(N3CCC[C@@H](C)C3)CC2)cc1 (stereo partly drawn) [Example 43, N-Methyl-4-{[(3R)-3-methyl-1,4′-bipiperidin-1′-yl]carbonyl}-N-(1-phenylethyl)benzamide] | 39
CCCC(C)NC(=O)c1ccc(C(=O)N2CCC(N3CCCC(C)C3)CC2)cc1 (stereo not shown) [Example 44, 4-[(3-methyl-1,4′-bipiperidin-1′-yl)carbonyl]-N-(pentan-2-yl)benzamide] | 55
CC1CCCN(C2CCN(C(=O)c3ccc(C(=O)NCc4ccncc4)cc3)CC2)C1 (stereo not shown) [Example 45, 4-[(3-methyl-1,4′-bipiperidin-1′-yl)carbonyl]-N-(pyridin-4-yl-methyl) benzamide] | 82
CC1CCN(C(=O)c2ccc(C(=O)N3CCC(N4CCCC(C)C4)CC3)cc2)C(C)C1 (stereo not shown) [Example 46, (2,4-dimethylpiperidin-1-yl){4-[(3-methyl-1,4′-bipiperidin-1′-yl)carbonyl]phenyl} methanone] | 128
CC1CCCN(C2CCN(C(=O)c3ccc(C(=O)NC(C)C(C)C)cc3)CC2)C1 (stereo not shown) [Example 47, 4-[(3-methyl-1,4′-bipiperidin-1′-yl)carbonyl]-N-(3-methylbutan-2-yl)benzamide] | 150
CC(C)CN(C)C(=O)c1ccc(C(=O)N2CCC(N3CCCC(C)C3)CC2)cc1 (stereo not shown) [Example 48, N-methyl-4-[(3-methyl-1,4′-bipiperidin-1′-yl)carbonyl]-N-(2-methylpropyl) benzamide] | 199
CC1CCCN(C2CCN(C(=O)c3ccc(C(=O)N(C)C4CCCCC4)cc3)CC2)C1 (stereo not shown) [Example 49, N-cyclohexyl-N-methyl-4-[(3-methyl-1,4′-bipiperidin-1′-yl)carbonyl] benzamide] | 348
Cc1cc(CN(C)C(=O)c2ccc(C(=O)N3CCC(N4CCCC(C)C4)CC3)cc2)on1 (stereo not shown) [Example 50, N-methyl-4-[(3-methyl-1,4′-bipiperidin-1′-yl)carbonyl]-N-[(3-methyl-1,2-oxazol-5-yl)methyl]benzamide] | 169
CCCN(CC1CC1)C(=O)c1ccc(C(=O)N2CCC(N3CCCC(C)C3)CC2)cc1 (stereo not shown) [Example 51, N-(cyclopropyl-methyl)-4-[(3-methyl-1,4′-bipiperidin-1′-yl)carbonyl]-N-propylbenzamide] | 180
CC1CCCN(C2CCN(C(=O)c3ccc(C(=O)N(C)CC4(C)COC4)cc3)CC2)C1 (stereo not shown) [Example 52, N-methyl-4-[(3-methyl-1,4′-bipiperidin-1′-yl)carbonyl]-N-[(3-methyloxetan-3-yl)methyl]benzamide] | 182
CC1CCCN(C2CCN(C(=O)c3ccc(C(=O)NC(CO)Cc4ccc(Cl)cc4)cc3)CC2)C1 (stereo not shown) [Example 53, N-[1-(4-chlorophenyl)-3-hydroxypropan-2-yl]-4-[(3-methyl-1,4′-bipiperidin-1′-yl)carbonyl]benzamide] | 198
CC1CCCN(C2CCN(C(=O)c3ccc(C(=O)NC(C)Cn4cccn4)cc3)CC2)C1 (stereo not shown) [Example 54, 4-[(3-methyl-1,4′-bipiperidin-1′-yl)carbonyl]-N-[1-(1H-pyrazol-1-yl)propan-2-yl]benzamide] | 199
COCC(C)NC(=O)c1ccc(C(=O)N2CCC(N3CCCC(C)C3)CC2)cc1 (stereo not shown) [Example 55, N-(1-methoxypropan-2-yl)-4-[(3-methyl-1,4′-bipiperidin-1′-yl)carbonyl]benzamide] | 330
